“Also recorded” adds a separate entry of the source.
How the values were obtained:
[1] = tested on: HIV (cytopathic effect, ATH8 T cell line); test: Protection of ATH8 T cell line against cytopathic effect of HIV (synergy of combinations); format: cell-based, human immunodeficiency virus; conditions: in vitro
[2] = beagle dog; previously shown; cited from earlier work
[3] = Conversion of 2',3'-dideoxyadenosine in patients; format: in vivo, human
Source text: In addition to the 37 patients mentioned above, another 20 patients have been treated for a total of 57.

[4] = human, in vivo
retroviral replication = conditions: cited from earlier work
[5] = tested on: human immunodeficiency virus-associated neurological dysfunction; test: Cognitive function in patients with HIV-associated neurological dysfunction
HIV = test: Serum HIV p24 antigen and HIV load in treated patients; format: in vivo
anergic patients = test: Cutaneous delayed type hypersensitivity reaction (skin test reactivity) of anergic patients; format: in vivo, human
[6] = human, in vivo; remark: listed apart in the source
[7] = human, in vivo; remark: listed apart in the source
clinical = conditions: human, in vivo, iv, 3.2 mg/kg
[8] = tested on: patients with AIDS or AIDS-related complex; test: Clinical improvement (well being, energy, weight, duration of benefit) in treated patients; format: in vivo, human
Source text: Other patients had fatigue, loss of appetite, fevers, or recent weight loss. Many of these patients could not tolerate therapy with 3'-azido-2',3'-dideoxythymidine (AZT, zidovudine) because of nausea, malaise, or bone marrow toxicity, or were clinically deteriorating while on AZT treatment.

[9] = tested on: patients with AIDS or AIDS-related complex; test: Immune parameters (circulating CD4+, CD8+, total lymphocytes, CD4+:CD8+ ratio) in treated patients; format: in vivo, human
HIV-infected patients = test: Combination therapy of patients with 2',3'-dideoxyinosine and other agents; format: in vivo, human
Source text: Examples of such therapies are disclosed in the following examples.
These two drugs are alternated in this manner about week-by-week for about one year. […] These two drugs are alternated about week-by-week for about 6 months.

[10] = even low doses, after patient has developed pancreatitis; cited from earlier work
[11] = tested on: patients with HIV infection; conditions: in vivo; cited from earlier work
HIV p24 gag production = conditions: with 2',3'-dideoxyinosine, T-cell line
[12] = about 1 to 7 mg/kg/day intravenously then about 2 to 14 mg/kg/day orally
[13] = patients with HIV infection, intravenous or oral
[14] = with gancyclovir about 500 mg/day iv, 2 weeks

Nc1ccn([C@H]2CC[C@@H](CO)O2)c(=O)n1 [2',3'-Dideoxycytidine]
synergy with 2',3'-dideoxyinosine, protection of ATH8 against cytopathic effect of HIV [1]: synergistic

Nc1ncnc2c1ncn2[C@H]1CC[C@@H](CO)O1 [2',3'-dideoxyadenosine]
oral bioavailability [2]: can be orally bioavailable | conversion to 2',3'-dideoxyinosine [3]: rapidly converted to 2',3'-dideoxyinosine

OC[C@@H]1CC[C@H](n2cnc3c(O)ncnc32)O1 [2',3'-dideoxyinosine]
hepatitis after discontinuation [4]: the hepatitis resolved | recurrence of hepatitis after restart ([4]; po, 6.4 mg/kg/day): did not recur | suppression of retroviral replication (retroviral replication): known to suppress retroviral replication | oral absorption and pharmacokinetics on chronic administration (chronic oral administration in a given person): remain fairly constant | oral absorption, non-fasting (oral, patient not in a fasting state): effectively absorbed | patients with improved cognitive function ([5]; 6 to 10 weeks of therapy, memory, speed and precision of doing tasks): 4 patients | cognitive dysfunction associated with HIV infection ([5]; intravenous or oral route): an improvement in cognitive dysfunction | memory quotient ([5]; one patient, about 9.6 mg/kg/day orally in 3 doses, from 111, after 6 weeks): 121 | replication of HIV (HIV; 35 evaluable patients): a decrease in the replication in their HIV | patients with no detectable serum HIV p24 antigen (HIV; after about one year, about 6.4 to 9.6 mg/kg/day oral): two | serum HIV p24 antigen (change) (HIV; by week 6, about 1 to 7 mg/kg/day iv then about 2 to 14 mg/kg/day orally, patients with detectable p24): substantial decreases in their serum HIV p24 antigen | patients with decline in serum HIV p24 antigen (HIV; first 6 weeks, about 6.4 to 9.6 mg/kg/day orally, 3 patients with detectable p24 before therapy): All 3 had a decline | reduction of p24 antigen detectable in serum (HIV; intravenous or oral route): a reduction of the amount of p24 antigen | serum HIV p24 antigen in patients viremic in the face of AZT (HIV; patients viremic in the face of AZT therapy): a fall in serum HIV p24 antigen | load of HIV in circulating lymphocytes by polymerase chain reaction (HIV; while receiving 2',3'-dideoxyinosine): a decrease in the load of HIV in their circulating lymphocytes | anergic patients developing skin test reactivity to at least one test antigen (anergic patients; after approximately 6 weeks of therapy): 7 of these 23 (anergic patients | cutaneous delayed type hypersensitivity reaction of anergic patients (anergic patients; some patients): regained the ability to mount a cutaneous delayed type hypersensitivity reaction to at least one test antigen | cumulative dose exceeded without neuropathy appearing [6]: > 1.5 gm/kg | neuropathy after prompt stopping in warning phase [6]: the neuropathy subsided | pancreatitis [7]: can definitely cause pancreatitis | time for amylase to return to about normal [7]: about one | evidence of pancreatitis after restart ([7]; 6.4 mg/kg/day): no evidence of pancreatitis | recurrence of pancreatitis after restart ([7]; po, 6.4 mg/kg/day): did not recur | serum amylase after restart ([7]; po, 6.4 mg/kg/day): 80 U/liter | clinical symptoms of pancreatitis ([7]; po, 9.6 mg/kg/day): no clinical symptoms of pancreatitis | Cmax (clinical): ~10 µM | half-life (clinical): ~40 min | synergy with dextran sulfate, protection of ATH8 against cytopathic effect of HIV ([1]; with dextran sulfate): synergistic | clinical improvement ([8]; 35 evaluable patients): clinical improvement | patients reporting an improvement in well being ([8]; 37 patients, increase in energy, decreased sleep requirements, or increased appetite): approximately one half of the 37 patients | patients in whom the beneficial changes were seen ([8]; about 2 to 14 mg/kg/day orally with buffers or antacid): nearly all of the patients | persistence of clinical improvements ([8]; about 2 to about 14 mg/kg/day orally with antiacids or buffers): can persist over at least a year's period of time | average weight gain ([8]; first 6 weeks of therapy): 1.5 kg | energy (change) ([8]; intravenous or oral route): an increase in energy | weight (change) ([8]; intravenous or oral route): an increase in weight | patients still having increases in circulating CD4+ lymphocytes ([9]; 3.2 to 4.8 mg/kg/day iv about 2 weeks, then about 6.4 to 9.6 mg/kg/day orally, about one year): 4 of the first 7 patients | number of circulating CD4+ lymphocytes (change) [9, 12]: substantial increases in the number of circulating CD4+ lymphocytes | number of circulating CD8+ lymphocytes (change) [9, 12]: increases in the number of circulating CD8+ lymphocytes | number of circulating total lymphocytes (change) [9, 12]: increases in the number of circulating total lymphocytes | time within which lymphocyte changes were observed ([9]; about 2 to 14 mg/kg/day orally after intravenous, within about): ≤ 2 weeks | immune parameters improvement ([9]; below 2 mg/kg/day orally): not as consistently seen | duration of lymphocyte changes ([9]; in many cases, about 2 to 14 mg/kg/day orally): at least one | immune function ([9]; intravenous or oral route, long periods of time): improvement in immune function | immune parameters improvement ([9]; more than 14 mg/kg/day orally, some patients): improvements in immune parameters | CD4+ lymphocytes after treatment ([9]; one patient, baseline about 31, 1.6 mg/kg/day iv about 2 weeks, then oral 3.2 (10 weeks), 4.8 (21 weeks), 9.6 mg/kg/day (31 weeks)): about 90 CD4+ lymphocytes/mm^3 | CD4+ increases by prior AZT therapy ([9]; patients who had previously received 4 months or less of AZT): most consistently seen | number of circulating CD4+ lymphocytes (change) [9, 13]: an increase in the number of circulating CD4+ lymphocytes; also recorded: increases in their circulating CD4+ cells | number of circulating CD8+ lymphocytes (change) [9, 13]: an increase in the number of CD8+ lymphocytes; also recorded: increases in the number of CD8+ lymphocytes | number of circulating total lymphocytes (change) [9, 13]: an increase in the number of circulating total lymphocytes; also recorded: increases in the number of total lymphocytes | CD8+ lymphocytes after treatment ([9]; same first patient, baseline 189): about 302 CD8+ lymphocytes/mm^3 | total lymphocytes after treatment ([9]; same first patient, baseline 405): about 816 total lymphocytes/mm^3 | CD8+ lymphocytes after treatment ([9]; second patient, baseline 844, about one year): about 1256 CD8+ lymphocytes/mm^3 | total lymphocytes after treatment ([9]; second patient, baseline 1270, about one year): about 1794 total lymphocytes/mm^3 | CD4+ lymphocytes after treatment ([9]; second patient, baseline about 219, 4.8 mg/kg/day iv about 2 weeks then 9.6 mg/kg/day oral, about one year): about 359 CD4+ lymphocytes/mm^3 | outcome of combination with AZT (HIV-infected patients; AZT 300 mg/day with ddI 3.2 mg/kg/day, or AZT 600 mg/day alternating weekly with ddI 6.4 mg/kg/day, about one year): Beneficial effects are seen | outcome of combination with ddC (HIV-infected patients; ddC 0.015 mg/kg/day with ddI 3.2 mg/kg/day, or ddC 0.03 mg/day alternating weekly with ddI 6.4 mg/kg/day, about 6 months): Beneficial effects are seen | outcome of combination with ribavirin (HIV-infected patients; ddI 3.2 mg/kg/day orally, ribavirin 100 to 2400 mg/day orally, about 6 months): Beneficial effects are seen | clinical course with pentamidine prophylaxis (HIV-infected patients; ddI 4.8 mg/kg/day iv 2 weeks then 9.6 mg/kg/day orally 56 weeks, 300 mg pentamidine isothionate inhaled monthly): clinically did well | outcome of combination with dextran sulfate (HIV-infected patients; ddI 6.4 mg/kg/day orally, dextran sulfate 2700 mg/day iv, about 6 months): Beneficial effects are seen | outcome of combination with rCD4 (HIV-infected patients; ddI 6.4 mg/kg/day orally, rCD4 300 μg/kg/day iv, 1 year): Beneficial effects are seen | outcome of combination with interferon alpha (HIV-infected patients; ddI 1 to 14 mg/kg/day orally with 0.5 to 10 million units interferon alpha daily, about 3 months, Kaposi's sarcoma): Beneficial effects are seen | outcome of combination with IL-2 (HIV-infected patients; ddI 1 to 14 mg/kg/day orally with 25,000 to 1 million U/day IL-2, about 3 months): Beneficial effects are seen | development of Pneumocystis carinii pneumonia (HIV-infected patients; with 300 mg pentamidine isothionate inhaled monthly, about 56 weeks): did not develop Pneumocystis carinii pneumonia | recurrence of cytomegalovirus retinitis (HIV-infected patients; with acyclovir 4800 mg/day, 4 weeks): the retinitis has not recurred | increase in weight (HIV-infected patients; [14]): about 2.2 kg | recurrence of cytomegalovirus retinitis (HIV-infected patients; [14]): has not had a recurrence of the retinitis | patient's report (HIV-infected patients; with gancyclovir about 500 mg/day iv, ddI 6.4 mg/kg/day orally, 2 weeks): reports feeling better

Sc1ncnc2nc[nH]c12 [6-mercaptopurine]
pancreatitis on re-administration [10]: causes pancreatitis that returns acutely

Cc1cn([C@H]2C[C@H](N=[N+]=[N-])[C@@H](CO)O2)c(=O)[nH]c1=O [AZT, 3'-azido-2',3'-dideoxythymidine]
hepatic dysfunction [11]: can cause hepatic dysfunction | pancreatitis or peripheral neuropathy [11]: not known to cause pancreatitis or a peripheral neuropathy | toxicities and side effects [11]: anemia, other bone marrow suppression, and certain other toxicities such as myositis (muscle destruction or inflammation), headaches, nausea, vomiting, malaise, or seizures | synergy with 2',3'-dideoxyinosine, protection of ATH8 against cytopathic effect of HIV [1]: synergistic

NC(=O)c1ncn([C@@H]2O[C@H](CO)[C@@H](O)[C@H]2O)n1 [Ribavirin]
effect on the anti-HIV effect of 2',3'-dideoxyinosine (HIV p24 gag production) (HIV p24 gag production): induce enhancement of the anti-HIV effect
